Measurements taken from ChEMBL document CHEMBL1124693, “Synthesis of the novel pi-(benzyloxymethyl)-protected histidine analogue of statine. Inhibition of penicillopepsin by pepstatin-derived peptides containing different statine side-chain derivatives” (J Med Chem, 1989).

Assays:
[1] = test system: Penicillopepsin (Penicillium janthinellum); assay: Inhibitory activity against pencillopepsin
[2] = test system: Penicillopepsin (Penicillium janthinellum); assay: Slow binding kinetics after pre-incubation of enzyme and inhibitor for 10 min before substrate addition;+ indicates weak inhibition of penicillopepsin.

CCOC(=O)C[C@H](O)[C@H](CCCN)NC(=O)[C@@H](NC(=O)[C@@H](NC(=O)CC(C)C)C(C)C)C(C)C showed a Ki [1] of 1.1 nM.
CCOC(=O)C[C@H](O)[C@H](CC(C)C)NC(=O)[C@H](NC(=O)[C@@H](NC(=O)CC(C)C)C(C)C)C(C)C was tested, and the Ki [1] was greater than 18000 nM.
CCOC(=O)C[C@H](O)[C@H](Cc1ccccc1)NC(=O)[C@@H](NC(=O)[C@@H](NC(=O)CC(C)C)C(C)C)C(C)C was tested, and the Ki [1] was 15 nM.
CCOC(=O)C[C@H](O)[C@H](CC(C)C)NC(=O)[C@@H](NC(=O)[C@@H](NC(=O)CC(C)C)C(C)C)C(C)C showed a Ki [1] of 72 nM.
COC(=O)C[C@H](O)[C@H](Cc1c[nH]cn1)NC(=O)[C@@H](NC(=O)[C@@H](NC(=O)CC(C)C)C(C)C)C(C)C was tested, and the Ki [1] was 4.5 nM and the Slow binding [2] was “weak inhibition of porcine pepsin”.
